{"source": "patent US6281214A", "about": "“Biphenyl derivatives” (Eisai Co., Ltd, priority 1994, dated 2001)", "parameters_in_all_cases": "species or system SD rats", "key": {"serotonin S2 receptor": {"target": "T1, serotonin S2 receptor (Rattus norvegicus, UniProt P14842)", "T1 construct": "The receptor fraction prepared from the cortex was molten and suspended; from tissue; host or cells: cerebral cortex of SD rats (membrane fraction)", "T1 sequence (P14842 whole entry)": "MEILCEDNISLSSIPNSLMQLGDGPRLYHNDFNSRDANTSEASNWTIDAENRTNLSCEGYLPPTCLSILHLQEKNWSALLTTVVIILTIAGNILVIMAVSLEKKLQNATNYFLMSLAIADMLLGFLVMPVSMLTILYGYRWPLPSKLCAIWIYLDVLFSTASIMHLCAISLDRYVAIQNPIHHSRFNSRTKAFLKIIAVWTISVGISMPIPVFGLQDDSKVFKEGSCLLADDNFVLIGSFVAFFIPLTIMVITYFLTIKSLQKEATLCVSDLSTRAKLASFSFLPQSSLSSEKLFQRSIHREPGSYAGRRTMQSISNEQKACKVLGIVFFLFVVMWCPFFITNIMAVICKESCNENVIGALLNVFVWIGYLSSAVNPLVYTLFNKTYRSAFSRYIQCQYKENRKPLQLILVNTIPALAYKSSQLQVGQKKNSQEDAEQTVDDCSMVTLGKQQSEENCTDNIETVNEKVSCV", "assay": "serotonin S2 receptor binding test ([3H] Ketanserin Binding Test)", "settings": "1 nM [3H] Ketanserin, rat cortex, 37° C., 15 minutes", "experimental": "(§1) The compounds of the present invention were subjected to each of serotonin S2 receptor binding test, dopamine D2 receptor binding test and adrenergic α1 receptor binding test.\n(§2) The following reagents were used in this test.\n(§3) These reagents and samples were each dissolved in 10% ethanol before use. Among them, water-insoluble compounds were each dissolved in ethanol and the obtained solution was diluted with distilled water to an ethanol concentration of 10%. Further, Methylsergide maleate was used in a state dissolved in distilled water.\n(§4) SD rats aged 6 to 8 weeks were used.\n(§5) SD rats were each slaughtered with a guillotine to extirpate its cerebrum. The cortex and corpus striatum were separated from the cerebrum. The former was used in serotonin S2 receptor binding test and adrenergic α1, receptor binding test, while the latter was used in dopamine D2 receptor binding test.\n(§6) The cortex was homogenized in a 0.32 M sucrose solution in an amount ten times the wet weight of the cortex by the use of a teflon glass homogenizer and the resulting mixture was centrifuged at 10,000×G for 20 minutes. The obtained sediment was suspended in 50 mM Tris hydrochloride (pH 7.4) in an amount ten times the initial wet weight of the cortex by the use of a histocothrom, and the obtained suspension was centrifuged at 10,000×G for 20 minutes. This operation was repeated twice. The obtained sediment was suspended in 50 mM Tris hydrochloride (pH 7.4) in an amount 20 times the initial wet weight of the cortex by the use of a histocothrom. The suspension thus prepared was used as a receptor fraction. This receptor fraction was stored at -80° C. until use.\n4. [^3 ] Ketanserin Binding Test\nThe receptor fraction prepared from the cortex was molten and suspended by the use of a histocothrom. The resulting suspension was incubated together with 1 nM-[^3 H] Ketanserin at 37° C. for 15 minutes. The resulting reaction system was filtered through a Whatman GF/B glass filter with an MR-30R type cell harvester mfd. by Blandel. The resulting filter was washed twice with 5 ml of 50 mM Tris hydrochloride (ph 7.4) cooled with ice and the radioactivity of the Ketanserin bound the receptor was determined by the use of a liquid scintillation counter with 5 ml of ACS II. The binding detected in the presence of […] of Methylsergide was regarded as nonspecific binding.\n(§7) Each IC50 value was calculated by the probit method and each Ki value was determined by the following formula: [formula]\n(§8) In the above formula, C represents the concentration of radioligand, and Kd represents the affinity of radioligand for the receptor as determined by the Scatchard analysis."}, "adrenergic α1 receptor": {"target": "adrenergic α1 receptor", "assay": "adrenergic α1 receptor binding test ([3H] Prazosin Binding Test)", "settings": "1 nM [3H] Prazosin, rat cortex, room temperature, 60 minutes", "experimental": "as §1, §2, §3, §4, §5, §6, §7, §8\n6. [^3 H] Prazosin Binding Test\n(§9) This test was conducted in the same manner as that of the binding test of [^3 H] Ketanserin except that the receptor fraction prepared from the cortex was molten and suspended with a histocothrom, and the obtained suspension was incubated together with 1 nM-[^3 H] Prazosin at room temperature for 60 minutes and that the binding detected in the presence of 10 μl of Phentolamine was regarded as nonspecific binding."}, "dopamine D2 receptor": {"target": "T2, dopamine D2 receptor (Rattus norvegicus, UniProt P61169)", "T2 construct": "the receptor fraction prepared from the corpus striatum was molten and suspended; from tissue; host or cells: corpus striatum of SD rats (membrane fraction)", "T2 sequence (P61169 whole entry)": "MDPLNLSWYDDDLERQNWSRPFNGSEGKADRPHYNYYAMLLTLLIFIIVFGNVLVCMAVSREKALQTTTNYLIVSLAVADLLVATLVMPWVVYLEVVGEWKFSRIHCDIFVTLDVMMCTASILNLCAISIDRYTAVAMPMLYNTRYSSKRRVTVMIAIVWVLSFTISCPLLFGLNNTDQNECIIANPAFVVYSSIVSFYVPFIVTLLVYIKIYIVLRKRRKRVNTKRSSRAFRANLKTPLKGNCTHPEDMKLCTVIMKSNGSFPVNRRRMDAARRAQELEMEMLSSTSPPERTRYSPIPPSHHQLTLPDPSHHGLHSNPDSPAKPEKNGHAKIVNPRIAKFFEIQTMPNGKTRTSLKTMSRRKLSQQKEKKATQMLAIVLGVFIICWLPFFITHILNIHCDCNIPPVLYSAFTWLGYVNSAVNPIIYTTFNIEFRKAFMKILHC", "assay": "dopamine D2 receptor binding test ([3H] Spiperone Binding Test)", "settings": "1 nM [3H] Spiperone, rat corpus striatum, room temperature, 60 minutes; read-out: Ki value, dopamine D2 receptor", "experimental": "as §1, §2, §3, §4, §5\nOn the other hand, the corpus striatum was homogenized in a 0.32 M sucrose solution in an amount ten times the wet weight of the corpus striatum by the use of a teflon glass homogenizer and the obtained mixture was centrifuged at 1,000×G for 20 minutes. The obtained supernatant was centrifuged at 10,000×G for 20 minutes. The obtained sediments were suspended together in 50 mM Tris hydrochloride (pH 7.4) in an amount ten times the initial wet weight of the corpus striatum by the use of a histocothrom, and the obtained suspension was centrifuged at 10,000×G for 20 minutes. This operation was repeated thrice. The resulting sediment was suspended in 50 mM Krebs-Tris (pH 7.4) in an amount 100 times the initial wet weight of the corpus striatum by the use of a histocothrom. The obtained suspension was used as a receptor fraction. This receptor fraction was stored at -80° C. until use.\nas §7, §8\n5. [^3 H] Spiperone Binding Test\nas §9, with “corpus striatum” for “cortex”, “H], Spiperone” for “H] Prazosin”, “Spiperone” for “Phentolamine”"}}}
{"smiles": "CCC(F)c1cc(N2CCN(CCO)CC2)cc(-c2ccccc2C#N)c1Cl", "note": "(single isomer, unassigned) [Example 13, 1-(2-hydroxyethyl)-4-[3-(2-cyanophenyl)-4-chloro-5-(fluoropropyl)]phenylpiperazine]", "values": [{"measurement": "Ki", "setting": "serotonin S2 receptor", "value": 0.0249, "unit": "µM"}, {"measurement": "Ki", "setting": "adrenergic α1 receptor", "value": 0.404, "unit": "µM"}, {"measurement": "Ki", "setting": "dopamine D2 receptor", "value": 0.00405, "unit": "µM"}]}
{"smiles": "CCN1CCN(c2cc(-c3ccccc3C)c(F)c(S(C)(=O)=O)c2)CC1", "note": "[Example 155]", "values": [{"measurement": "Ki", "setting": "serotonin S2 receptor", "value": 0.18, "unit": "µM"}, {"measurement": "Ki", "setting": "adrenergic α1 receptor", "value": 0.845, "unit": "µM"}, {"measurement": "Ki", "setting": "dopamine D2 receptor", "value": 0.041, "unit": "µM"}]}
{"smiles": "CCCS(=O)(=O)Nc1cc(N2CCN(CC)CC2)cc(-c2ccccc2Cl)c1Cl", "note": "[Example 32, 1-Ethyl-4-[3-(2-chlorophenyl)-4-chloro-5-propanesulfonylamino]phenylpiperazine]", "values": [{"measurement": "Ki", "setting": "serotonin S2 receptor", "value": 0.00336, "unit": "µM"}, {"measurement": "Ki", "setting": "adrenergic α1 receptor", "value": 0.0195, "unit": "µM"}, {"measurement": "Ki", "setting": "dopamine D2 receptor", "value": 0.00038, "unit": "µM"}]}
{"smiles": "CCN1CCN(c2cc(-c3ccccc3)c(OC)c(S(=O)(=O)CCC#N)c2)CC1", "note": "[Example 183, 1-Ethyl-4-[3-phenyl-4-methoxy-5-(2-cycanoethylsulfonyl)]phenylpiperazine]", "values": [{"measurement": "Ki", "setting": "serotonin S2 receptor", "value": 0.0812, "unit": "µM"}, {"measurement": "Ki", "setting": "adrenergic α1 receptor", "value": "> 1", "unit": "µM"}, {"measurement": "Ki", "setting": "dopamine D2 receptor", "value": 0.165, "unit": "µM"}]}
{"smiles": "CN1CCN(c2cc(NS(C)(=O)=O)c(Cl)c(-c3ccccc3Cl)c2)CC1", "note": "[Example 188, 1-Methyl-4-[3-(2-chlorophenyl)-4-chloro-5-methanesulfonylamino]phenylpiperazine]", "values": [{"measurement": "Ki", "setting": "serotonin S2 receptor", "value": 0.0478, "unit": "µM"}, {"measurement": "Ki", "setting": "adrenergic α1 receptor", "value": 0.019, "unit": "µM"}, {"measurement": "Ki", "setting": "dopamine D2 receptor", "value": 0.00133, "unit": "µM"}]}
{"smiles": "CCN1CCN(c2cc(-c3ccccc3)c(OC)c(S(=O)(=O)N3CCCC3)c2)CC1", "note": "[Example 135, 1-Ethyl-4-[3-phenyl-4-methoxy-5-(1-pyrrolidinylsulfonyl)]phenylpiperazine]", "values": [{"measurement": "Ki", "setting": "serotonin S2 receptor", "value": 0.016, "unit": "µM"}, {"measurement": "Ki", "setting": "adrenergic α1 receptor", "value": "> 1", "unit": "µM"}, {"measurement": "Ki", "setting": "dopamine D2 receptor", "value": 0.0421, "unit": "µM"}]}
{"smiles": "CN1CCN(c2cc(NS(=O)(=O)Cc3ccccc3)c(Cl)c(-c3ccccc3Cl)c2)CC1", "note": "[Example 179, 1-Methyl-4-[3-(2-chlorophenyl)-4-chloro-5-benzylsulfonylamino]phenylpiperazine]", "values": [{"measurement": "Ki", "setting": "serotonin S2 receptor", "value": 0.00654, "unit": "µM"}, {"measurement": "Ki", "setting": "adrenergic α1 receptor", "value": 0.0727, "unit": "µM"}, {"measurement": "Ki", "setting": "dopamine D2 receptor", "value": 0.00608, "unit": "µM"}]}
{"smiles": "CCC(F)c1cc(N2CCN(CC)CC2)cc(-c2ccc(F)cc2C)c1Cl", "note": "(stereo not drawn) [Example 142, 1-Ethyl-4-{3-[2-(4-fluorotolyl)]-4-chloro-5-(1-fluoropropyl)}phenylpiperazine]", "values": [{"measurement": "Ki", "setting": "serotonin S2 receptor", "value": 0.0205, "unit": "µM"}, {"measurement": "Ki", "setting": "adrenergic α1 receptor", "value": 0.653, "unit": "µM"}, {"measurement": "Ki", "setting": "dopamine D2 receptor", "value": 0.00177, "unit": "µM"}]}
{"smiles": "CCN1CCN(c2cc(-c3ccccc3C)c(Cl)c(C(C)F)c2)CC1", "note": "(stereo not drawn) [Example 52]", "values": [{"measurement": "Ki", "setting": "serotonin S2 receptor", "value": 0.0216, "unit": "µM"}, {"measurement": "Ki", "setting": "adrenergic α1 receptor", "value": "> 1", "unit": "µM"}, {"measurement": "Ki", "setting": "dopamine D2 receptor", "value": 0.00099, "unit": "µM"}]}
{"smiles": "CCCS(=O)(=O)c1cc(N2CCN(CC)CC2)cc(-c2ccccc2C)c1Cl", "note": "[Example 159, 1-Ethyl-4-[3-(2-tolyl)-4-chloro-5-propanesulfonyl]phenylpiperazine]", "values": [{"measurement": "Ki", "setting": "serotonin S2 receptor", "value": 0.00881, "unit": "µM"}, {"measurement": "Ki", "setting": "adrenergic α1 receptor", "value": 0.596, "unit": "µM"}, {"measurement": "Ki", "setting": "dopamine D2 receptor", "value": 0.00393, "unit": "µM"}]}
{"smiles": "CCCC(O)c1cc(N2CCN(C)CC2)cc(-c2ccccc2C)c1Cl", "note": "(stereo not drawn) [Example 174]", "values": [{"measurement": "Ki", "setting": "serotonin S2 receptor", "value": 0.0487, "unit": "µM"}, {"measurement": "Ki", "setting": "adrenergic α1 receptor", "value": "> 1", "unit": "µM"}, {"measurement": "Ki", "setting": "dopamine D2 receptor", "value": 0.0318, "unit": "µM"}]}
{"smiles": "CCN1CCN(c2cc(C(=O)Cc3ccc(F)cc3)c(OC)c(-c3ccccc3)c2)CC1", "note": "[Example 93, 1-Ethyl-4-[3-phenyl-4-methoxy-5-(4-fluorophenyl)acetyl]phenylpiperazine]", "values": [{"measurement": "Ki", "setting": "serotonin S2 receptor", "value": 0.00131, "unit": "µM"}, {"measurement": "Ki", "setting": "adrenergic α1 receptor", "value": 0.719, "unit": "µM"}, {"measurement": "Ki", "setting": "dopamine D2 receptor", "value": 0.028, "unit": "µM"}]}
{"smiles": "CCN1CCN(c2cc(CCCC#N)c(OC)c(-c3ccccc3)c2)CC1", "note": "[Example 71, 1-Ethyl-4-[3-phenyl-4-methoxy-5-(3-cyanopropyl)]phenylpiperazine]", "values": [{"measurement": "Ki", "setting": "serotonin S2 receptor", "value": 0.0909, "unit": "µM"}, {"measurement": "Ki", "setting": "adrenergic α1 receptor", "value": 0.131, "unit": "µM"}, {"measurement": "Ki", "setting": "dopamine D2 receptor", "value": 0.0147, "unit": "µM"}]}
{"smiles": "CCC(F)c1cc(N2CCN(CC)CC2)cc(-c2ccccc2)c1OC", "note": "(stereo not drawn) [Example 88, 1-Ethyl-4-[3-phenyl-4-methoxy-5-(1-fluoropropyl)]phenylpiperazine]", "values": [{"measurement": "Ki", "setting": "serotonin S2 receptor", "value": 0.00833, "unit": "µM"}, {"measurement": "Ki", "setting": "adrenergic α1 receptor", "value": 0.493, "unit": "µM"}, {"measurement": "Ki", "setting": "dopamine D2 receptor", "value": 0.00735, "unit": "µM"}]}
{"smiles": "CCC(F)c1cc(N2CCN(CC)CC2)cc(-c2ccccc2COC)c1Cl", "note": "(stereo not drawn) [Example 145, 1-Ethyl-4-[3-(2-methoxymethylphenyl)-4-chloro-5-(1-fluoropropyl)]phenylpiperazine]", "values": [{"measurement": "Ki", "setting": "serotonin S2 receptor", "value": 0.0725, "unit": "µM"}, {"measurement": "Ki", "setting": "adrenergic α1 receptor", "value": "> 1", "unit": "µM"}, {"measurement": "Ki", "setting": "dopamine D2 receptor", "value": 0.00828, "unit": "µM"}]}
